We go through 1 compound from patent US7056734B1, “Differentiation of non-insulin producing cells into insulin producing cells by GLP-1 or exendin-4 and uses thereof” (The United States of America as represented by the …, priority 1998, dated 2006).

For series [1], the system named is Wistar rats. Nature of the series: Acute intravenous GLP-1 bolus, plasma insulin response in young and old rats. The format is in vivo, rat. Conditions: 0.2 nmol/kg iv bolus; for maximal insulin response: 2 min after completion of the bolus. The method, then:
Protocols. To insure that old animals were capable of responding to GLP-1, we carried out an acute experiment with an intravenous bolus of GLP-1. Six old (22 months) and 6 young (3 months) Wistar rats were fasted overnight. Following anesthesia with 50 mg/kg pentobarbital, a catheter was placed in the femoral artery for blood sampling, and a bolus of GLP-1 (0.2 nmol/kg) was given into the saphenous vein over 30 sec. Blood (taken at 2, 4, 7, and 10 min) was collected for insulin determination.

How the values of series [2] were obtained:
The rats were implanted with an Alzet micro-osmotic pump (Alza Corp., Palo Alto, Calif.) in the interscapular region for 48 hrs. […] Control animals received normal saline in their pumps and received their infusion for the same length of time.
Assays. Plasma glucose was measured by the glucose oxidase method (Egan et al., 1991). […] The amount of cellular proteins was measured using the Bradford method (Bio-Rad Richmond, Calif.) using bovine γ-globulin as standard.

The subject of series [3] is Hexokinase I, II and III mRNA. Nature of the series: Slot-blot quantitation of hexokinase I, II and III mRNA in pancreata and islets. The format is in vivo, rat. Conditions: whole pancreata and islets. The method, then: Whole pancreata of rats that had been subjected to 48 hrs infusion with GLP-1 or saline were used to extract total RNA. After an overnight fast, animals were sacrificed, pancreata were removed and frozen in liquid nitrogen as quickly as possible. RNA was extracted by homogenization in guanidinium isothiocyanate, followed by ultracentrifugation on a 5.7 M cesium chloride cushion (Glisin et al., 1974; Chigwin et al., 1979). Poly-A RNA was then prepared from total RNA by affinity chromatography using oligo (dT) columns (Biolabs INC, Beverly, Mass.). RNA was quantified by spectrophotometric analysis at […]. Slot-blot analysis using poly-A RNA was used for quantitation of mRNA levels of glucokinase, which is the main glucose sensor of the beta cell (Matschinsky, 1990), the three hexokinases, GLUT2, the major glucose transporter of the beta cell (Mueckler, 1990), and insulin. Four micrograms of poly-A RNA were diluted in 50 μl TE buffer (Tris-HCL 10 mM, EDTA 1 mM, pH 7.4), 20 μl of 37% formaldehyde and 20 μl of 10× SSC. Samples were incubated at 60° C. for 15 min and then diluted with 1 ml of ice-cold 10× SSC (1×SCC=0.15 M NaCl+0.015 sodium citrate). […]
RNA isolation and quantitation of mRNAs in islets of Langerhans. […] Slot-Blot analysis was carried out to quantitate mRNA levels of the hexokinases, GLUT2, and insulin.

The subject of a further series is pancreata. Nature of the series: Pancreas weight after continuous GLP-1 infusion. The format is in vivo, rat. An excerpt: The pancreata of treated animals weighed 26% more than the pancreata of control animals.
The test system of series [4] is AR42J cells. Nature of the series: Protein tyrosine phosphorylation in AR42J cells. The conditions noted are these: 5 min treatment. The format is cell-based, rat. The method, then: Tyrosine Phosphorylation Studies. […] Then the medium was removed and fresh KRBB was added, followed by placing the cell on a 37° C. hot plate for 5 min. After addition of various reagents (see FIG. 24) for 5 min the reaction was terminated by submersion of the dishes in liquid nitrogen. The frozen cells were scraped and lysed in RIPA buffer. […] The blots were developed using the ECL chemiluminescence detection system (Amersham).

For series [5], the system named is AR42J cells. Nature of the series: Immunoreactive insulin release from treated AR42J cells (RIA). In kind it is cell-based, rat. The method, then:
Measurement of immunoreactive insulin. AR42J cells were cultured as before in 12-well cluster plates. When cells reached 60% confluence, they were treated with GLP-1 for 3 days. At the beginning of the experiments, an aliquot of the medium was taken in order to assay the insulin accumulation in the medium. Then the cells were twice washed with Kreb's Ringer Balanced Buffer (KRBB) and incubated in the same buffer containing 10 mM glucose for another 1 h. The medium was collected and kept at −20° C. until insulin levels were assayed by RIA (See Example 1; Wang et al., Endocrinology, 1995). The cells were washed with PBS and detached with 0.25% typsin and 0.02% EDTA. The cell pellet was collected and lysed with formic acid for protein determination by the Bradford method (Bradford, 1976), using bovine-globulin as standard.

Series [6] deals with Wistar rats. The conditions noted are these: De Ore et al., 1997; cited from earlier work.

Consider `CC[C@H](C)[C@H](NC(=O)[C@H](Cc1ccccc1)NC(=O)[C@H](CCC(=O)O)NC(=O)[C@H](CCCCN)NC(=O)[C@H](C)NC(=O)[C@H](C)NC(=O)[C@H](CCC(N)=O)NC(=O)CNC(=O)[C@H](CCC(=O)O)NC(=O)[C@H](CC(C)C)NC(=O)[C@H](Cc1ccc(O)cc1)NC(=O)[C@H](CO)NC(=O)[C@H](CO)NC(=O)[C@@H](NC(=O)[C@H](CC(=O)O)NC(=O)[C@H](CO)NC(=O)[C@@H](NC(=O)[C@H](Cc1ccccc1)NC(=O)[C@@H](NC(=O)CNC(=O)[C@H](CCC(=O)O)NC(=O)[C@H](C)NC(=O)[C@@H](N)Cc1c[nH]cn1)[C@@H](C)O)[C@@H](C)O)C(C)C)C(=O)N[C@@H](C)C(=O)N[C@@H](Cc1c[nH]c2ccccc12)C(=O)N[C@@H](CC(C)C)C(=O)N[C@H](C(=O)N[C@@H](CCCCN)C(=O)NCC(=O)N[C@@H](CCCNC(=N)N)C(N)=O)C(C)C` [GLP-1], for which the maximal insulin response is 347.7 ± 25.7 pmol/L with Wistar rats [1] (old (22 month) fasted rats) and 373.3±43.7 pmol/1 with Wistar rats [1] (young (3 month) fasted rats). In addition, in the series with Wistar rats [1] (young and old rats), the “time at which insulin levels had returned to baseline” value is on record as 10 min. Besides, the “plasma GLP-1 before commencement of glucose tolerance testing” value in series [2] (120 min after removal of pumps) is reported as “below the level of detectability”. Also, the “plasma GLP-1 levels relative to fasting levels” value in series [2] (during infusion, fasting levels 10–20 pmol/l) was “approximately 6 times”. Further, the “Hexokinase I, II and III mRNA levels” value in series [3] is “did not appear to be altered”. Further, the “pancreas weight increase over control animals” value with pancreata is recorded as 26%. In the series with AR42J cells [4], the “effect on protein tyrosine phosphorylation” value is given as “did not have any effect”. Also, in the series on AR42J cells [5] (1 nM GLP-1 for 3 days, 60–72 h time period, mean±SD of 3 cultures), the “insulin in cell culture medium” value was 5.1±0.4 pg insulin/μg protein. In addition, in the series with AR42J cells [5] (3 days of GLP-1, then KRBB with 10 mM glucose for 1 h, control cells zero), the “glucose-induced insulin in buffer” value is given as 0.65±0.15 pg insulin/μg protein. Besides, in the series on Wistar rats [6], the “dose giving maximal insulin response” value is listed as 0.4 nmol/kg.
